Experimental data taken from patent US20240294531A1, “COVALENT HETEROCYCLES AND USES THEREOF” (Kumquat Biosciences Inc., priority 2022, published 2024).

Tests used:
BTK wildtype protein = BTK wildtype protein (Homo sapiens (Human), UniProt Q06187); assay: BTK wildtype HTRF displacement assay; assay type: binding; conditions: 1-hour incubation; read-out: BTK (wt) IC50
Protocol: (§1) The ability of a compound to bind BTK wildtype or BTK C481S proteins was measured using an HTRF displacement assay. The assay measures the ability of a compound to displace a tracer ligand bound to the active site of BTK wildtype or BTK C481 S proteins.
(§2) Test compounds were prepared as 10 mM stock solutions in DMSO (Fisher cat #BP231-100). Compounds to be assayed were dispensed using an Echo 650 acoustic dispenser (Beckman Coulter) on a 384 well plate in 6 doses applying four-fold dilutions from the highest concentration of 5 μM. N-terminal GST-tagged recombinant full-length BTK wildtype protein and BTK C481 S protein 2-659 were purchased from Carna Biosciences, Inc (Kobe, Japan). BTK wildtype or BTK C481S protein was separately incubated with compound in assay buffer containing kinase tracer 239 (Thermo Fisher) and Mab anti GST-Th (PerkinElmer). After a 1-hour incubation at room temperature, the HTRF signal was measured using SPARK plate reader (Tecan) using the TR fluorescence mode. The HTRF ratio is calculated for DMSO, no protein control and compound samples using the following equation: HTRF ratio=Emmision665/Emmision620×10^4. The signal for the no protein control samples was used to subtract background noise from the DMSO and compound samples. Background subtracted HTRF ratios are used to calculate the percent inhibition, where DMSO controls are set to 0 percent inhibition. The percent inhibition is plotted as a function of compound concentration and IC50 values were calculated from a four-parameter logistic fit in Prism v9.4 (GraphPad), where the bottom and top are constrained to 0 and 100, respectively.

BTK C481S protein = BTK C481S protein (Homo sapiens (Human), UniProt Q06187, C481S); assay: BTK C481S HTRF displacement assay; assay type: binding; conditions: 1-hour incubation
Protocol: as §1, §2
The same assay was used to measure the activity of selected compounds of the formula TBM-L-hydrogen. Using the IC50 value observed for a given reversible test compound, the KI of the test compound can be assessed using the formula KI=IC50/(1+([Tracer]/Kd)), wherein the tracer concentration in the assay [Tracer] is 50 nM and the tracer Kd for BTK C481S is 54 nM.

BTK C481S protein, sequence (Q06187 2-659 C481S): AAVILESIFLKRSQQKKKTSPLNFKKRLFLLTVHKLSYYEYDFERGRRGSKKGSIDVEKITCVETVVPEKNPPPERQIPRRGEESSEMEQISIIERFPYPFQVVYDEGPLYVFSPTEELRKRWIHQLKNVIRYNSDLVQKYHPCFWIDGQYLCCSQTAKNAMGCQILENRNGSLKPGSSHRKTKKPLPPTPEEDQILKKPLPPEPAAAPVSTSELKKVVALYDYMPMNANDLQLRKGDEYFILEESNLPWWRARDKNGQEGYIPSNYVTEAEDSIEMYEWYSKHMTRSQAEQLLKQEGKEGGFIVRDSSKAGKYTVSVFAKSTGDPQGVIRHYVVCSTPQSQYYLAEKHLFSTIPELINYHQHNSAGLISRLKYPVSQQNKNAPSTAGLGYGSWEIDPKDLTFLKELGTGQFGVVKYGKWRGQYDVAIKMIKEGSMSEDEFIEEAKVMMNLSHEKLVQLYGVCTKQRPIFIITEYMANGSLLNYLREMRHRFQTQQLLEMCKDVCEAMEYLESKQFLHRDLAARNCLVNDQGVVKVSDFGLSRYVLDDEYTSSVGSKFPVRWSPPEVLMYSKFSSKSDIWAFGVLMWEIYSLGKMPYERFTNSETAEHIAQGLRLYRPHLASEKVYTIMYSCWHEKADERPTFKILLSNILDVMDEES
BTK wildtype protein, sequence (Q06187 2-659): as the sequence (Q06187 2-659 C481S) above, with S480C counted along it

Row | IC50 (BTK wildtype protein) [nM] | IC50 (BTK C481S protein) [nM] | SMILES
1 | > 1000 | ≤ 1000 | COc1ccc(F)cc1C(=O)NCc1ccc(-c2nn(C[C@H]3CCCCN3C(=O)n3cncn3)c3[nH]c(=O)[nH]c(=O)c23)cc1 [Compound 185, (R)-N-(4-(1-((1-(1H-1,2,4-triazole-1-carbonyl)piperidin-2-yl)methyl)-4,6-dioxo-4,5,6,7-tetrahydro-1H-pyrazolo[3,4-d]pyrimidin-3-yl)benzyl)-5-fluoro-2-methoxybenzamide]
2 | > 1000 | > 1000 | CN(C(=O)n1cncn1)C1CCCC1C1CCNc2c(C(N)=O)c(-c3ccc(Oc4ccccc4)cc3)nn21 (stereo not shown) [Compound 235, 7-(2-(N-methyl-1H-1,2,4-triazole-1-carboxamido)cyclopentyl)-2-(4-phenoxyphenyl)-4,5,6,7-tetrahydropyrazolo[1,5-a] pyrimidine-3-carboxamide]
3 | > 1000 | > 1000 | COc1ccc(F)cc1C(=O)NCc1ccc(-c2nn(C(CN(C)C(=O)n3cncn3)c3ccccc3)c3ncnc(N)c23)cc1 (stereo not shown) [Compound 243, N-(2-(4-amino-3-(4-((5-fluoro-2-methoxybenzamido)methyl)phenyl)-1H-pyrazolo[3,4-d]pyrimidin-1-yl)-2-phenylethyl)-N-methl-1H-1,2,4-triazole-1-carboxamide]
4 | ≤ 1000 | ≤ 1000 | CN(CCC1CCNc2c(C(N)=O)c(-c3ccc(Oc4ccccc4)cc3)nn21)C(=O)n1cncn1 (stereo not shown) [Compound 244, 7-(2-(N-methyl-1H-1,2,4-triazole-1-carboxamido)ethyl)-2-(4-phenoxyphenyl)-4,5,6,7-tetrahydropyrazolo[1,5-a] pyrimidine-3-carboxamide]
5 | ≤ 1000 | ≤ 1000 | COc1ccc(F)cc1C(=O)NCc1ccc(-c2nn(CCC3CCCCN3C(=O)n3cncn3)c3ncnc(N)c23)cc1 (stereo not shown) [Compound 146]
6 | > 1000 | > 1000 | COc1ccc(F)cc1C(=O)NCc1ccc(-c2nn(C(C)CC3CCCCN3C(=O)n3cncn3)c3ncnc(N)c23)cc1 (stereo not shown) [Compound 129, N-(4-(1-(1-(1-(1H-1,2,4-triazole-1-carbonyl)piperidin-2-yl)propan-2-yl)-4-amino-1H-pyrazolo[3,4-d]pyrimidin-3-yl)benzyl)-5-fluoro-2-methoxybenzamide]
7 | > 1000 | > 1000 | CCC(CN(C)C(=O)n1cncn1)n1nc(-c2ccc(CNC(=O)c3cc(F)ccc3OC)cc2)c2c(N)ncnc21 (stereo not shown) [Compound 176, N-(2-(4-amino-3-(4-((5-fluoro-2-methoxybenzamido)methyl)phenyl)-1H-pyrazolo[3,4-d]pyrimidin-1-yl)butyl)-N-methyl-1H-1,2,4-triazole-1-carboxamide]
8 | ≤ 1000 | ≤ 1000 | NC(=O)c1c(-c2ccc(Oc3ccccc3)cc2)nn(C2CCCC3C2CCN3C(=O)n2cncn2)c1N (stereo not shown) [Compound 197, 1-(1-(1H-1,2,4-triazole-1-carbonyl)octahydro-1H-indol-4-yl)-5-amino-3-(4-phenoxy-phenyl)-1H-pyrazole-4-carboxamide]
9 | ≤ 1000 | ≤ 1000 | CC(CC1CCNc2c(C(N)=O)c(-c3ccc(Oc4ccccc4)cc3)nn21)N(C)C(=O)n1cncn1 (stereo not shown) [Compound 309, 7-(2-(N-methyl-1H-1,2,4-triazole-1-carboxamido)propyl)-2-(4-phenoxyphenyl)-4,5,6,7-tetrahydro-pyrazolo[1,5-a]pyrimidine-3-carboxamide]
10 | ≤ 1000 | ≤ 1000 | COc1ccc(F)cc1C(=O)NCc1ccc(-c2nn(-c3ccc(CN(C)C(=O)n4cncn4)cc3)c3ncnc(N)c23)cc1 [Compound 138, N-(4-(4-amino-3-(4-((5-fluoro-2-methoxybenzamido)methyl)phenyl)-1H-pyrazolo[3,4-d]pyrimidin-1-yl)benzyl)-N-methyl-1H-1,2,4-triazole-1-carboxamide]
11 | ≤ 1000 | ≤ 1000 | CCN(C(=O)n1cncn1)C1CCC(n2nc(-c3ccc(Oc4ccccc4)cc3)c3c(N)ncnc32)C1 (stereo not shown) [Compound 179, N-(3-(4-amino-3-(4-phenoxyphenyl)-1H-pyrazolo[3,4-d]pyrimidin-1-yl)cyclopentyl)-N-ethyl-1H-1,2,4-triazole-1-carboxamide]
12 | > 1000 | > 1000 | CC(C)[C@@H](C1CCNc2c(C(N)=O)c(-c3ccc(Oc4ccccc4)cc3)nn21)N(C)C(=O)n1cncn1 (stereo partly drawn) [Compound 301, 7-((S)-2-methyl-1-(N-methyl-1H-1,2,4-triazole-1-carboxamido)propyl)-2-(4-phenoxyphenyl)-4,5,6,7-tetrahydropyrazolo [1,5-a]pyrimidine-3-carboxamide]
13 | > 1000 | > 1000 | COc1ccc(F)cc1C(=O)NCc1ccc(-c2nn(C[C@H](C3CC3)N(C)C(=O)n3cncn3)c3ncnc(N)c23)cc1 [Compound 132, (S)-N-(2-(4-amino-3-(4-((5-fluoro-2-methoxybenzamido)methyl)phenyl)-1H-pyrazolo[3,4-d]pyrimidin-1-yl)-1-cyclopropylethyl)-N-methyl-1H-1,2,4-triazole-1-carboxamide]
14 | > 1000 | ≤ 1000 | COc1nn(C)cc1Nc1nc(N2CCCC(N(C)C(=O)n3cncn3)C2)nc2c1ncn2C (stereo not shown) [Compound 300, N-(1-(6-((3-methoxy-1-methyl-1H-pyrazol-4-yl)amino)-9-methyl-9H-purin-2-yl)piperidin-3-yl)-N-methyl-1H-1,2,4-triazole-1-carboxamide]
15 | ≤ 1000 | > 1000 | COc1ccc(F)cc1C(=O)NCc1ccc(-c2nn(C3(CN(C)C(=O)n4cnc(C#N)n4)CC3)c3ncnc(N)c23)cc1 [Compound 117, N-((1-(4-amino-3-(4-((5-fluoro-2-methoxybenzamido)methyl)phenyl)-1H-pyrazolo[3,4-d]pyrimidin-1-yl)cyclopropyl)methyl)-3-cyano-N-methyl-1H-1,2,4-triazole-1-carboxamide]
16 | ≤ 1000 | ≤ 1000 | COc1ccc(C)cc1C(=O)NCc1ccc(-c2nn(C3CCC(N(C)C(=O)n4cncn4)CC3)c3ncnc(N)c23)cc1 (stereo not shown) [Compound 258, N-(4-(4-amino-3-(4-((2-methoxy-5-methylbenzamido)methyl)phenyl)-1H-pyrazolo[3,4-d]pyrimidin-1-yl)cyclohexyl)-N-methyl-1H-1,2,4-triazole-1-carboxamide]
17 | ≤ 1000 | ≤ 1000 | COc1ccc(F)cc1C(=O)NCc1ccc(-c2nn(CC3CCN(C(=O)n4cncn4)C3)c3ncnc(N)c23)cc1 (stereo not shown) [Compound 245, N-(4-(1-((1-(1H-1,2,4-triazole-1-carbonyl)pyrrolidin-3-yl)methyl)-4-amino-1H-pyrazolo[3,4-d]pyrimidin-3-yl)benzyl)-5-fluoro-2-methoxybenzamide]
18 | > 1000 | > 1000 | NC(=O)c1c(-c2ccc(Oc3ccccc3)cc2)nn2c1NCC1CN(C(=O)n3cncn3)CC12 (stereo not shown) [Compound 228, 2-(4-phenoxyphenyl)-7-(1H-1,2,4-triazole-1-carbonyl)-5,5a,6,7,8,8a-hexahydro-4H-pyrazolo[1,5-a] pyrrolo[3,4-e]pyrimidine-3-carboxamide]
19 | > 1000 | ≤ 1000 | COc1ccc(F)cc1C(=O)NCc1ccc(-c2nn(C[C@H]3CCCCN3C(=O)n3cncn3)c3ncnc(N)c23)cc1 [Compound 104, (R)-N-(4-(1-((1-(1H-1,2,4-triazole-1-carbonyl)piperidin-2-yl)methyl)-4-amino-1H-pyrazolo[3,4-d]pyrimidin-3-yl)benzyl)-5-fluoro-2-methoxybenzamide]
20 | ≤ 1000 | ≤ 1000 | COc1ccc(F)cc1C(=O)NCc1ccc(-c2nn(CC3CCCN3C(=O)n3cncn3)c(N)c2C(N)=O)cc1 (stereo not shown) [Compound 293, 1-((1-(1H-1,2,4-triazole-1-carbonyl)pyrrolidin-2-yl)methyl)-5-amino-3-(4-((5-fluoro-2-methoxybenzamido)methyl)phenyl)-1H-pyrazole-4-carboxamide]
21 | ≤ 1000 | ≤ 1000 | CCN(C(=O)n1cncn1)C1CCCC(n2nc(-c3ccc(Oc4ccccc4)cc3)c3c(N)ncnc32)C1 (stereo not shown) [Compound 109, N-(3-(4-amino-3-(4-phenoxyphenyl)-1H-pyrazolo[3,4-d]pyrimidin-1-yl)cyclohexyl)-N-ethyl-1H-1,2,4-triazole-1-carboxamide]
22 | ≤ 1000 | ≤ 1000 | COc1ccc(F)cc1C(=O)NCc1ccc(-c2nn(CC3CCC3N(C)C(=O)n3cncn3)c3ncnc(N)c23)cc1 (stereo not shown) [Compound 209, N-(2-((4-amino-3-(4-((5-fluoro-2-methoxybenzamido)methyl)phenyl)-1H-pyrazolo[3,4-d]pyrimidin-1-yl)methyl)cyclobutyl)-N-methyl-1H-1,2,4-triazole-1-carboxamide]
23 | ≤ 1000 | ≤ 1000 | NC(=O)c1c(-c2ccc(Oc3ccccc3)cc2)nn2c1NCCC2C1CCN(C(=O)n2cncn2)C1 (stereo not shown) [Compound 282, 7-(1-(1H-1,2,4-triazole-1-carbonyl)pyrrolidin-3-yl)-2-(4-phenoxyphenyl)-4,5,6,7-tetrahydropyrazolo[1,5-a] pyrimidine-3-carboxamide]
